Experiments:
[1] = target: Rv0097 (Mycobacterium tuberculosis, UniProt P9WG83)
[2] = target: ScoE (Streptomyces coeruleorubidus, UniProt A0A3B6UEU3); experiment: LC-HRMS; assay type: biochemical; conditions: α-KG, Fe(II); no INBA formed, only a trace of 2

Sequence of Rv0097 (P9WG83 whole entry): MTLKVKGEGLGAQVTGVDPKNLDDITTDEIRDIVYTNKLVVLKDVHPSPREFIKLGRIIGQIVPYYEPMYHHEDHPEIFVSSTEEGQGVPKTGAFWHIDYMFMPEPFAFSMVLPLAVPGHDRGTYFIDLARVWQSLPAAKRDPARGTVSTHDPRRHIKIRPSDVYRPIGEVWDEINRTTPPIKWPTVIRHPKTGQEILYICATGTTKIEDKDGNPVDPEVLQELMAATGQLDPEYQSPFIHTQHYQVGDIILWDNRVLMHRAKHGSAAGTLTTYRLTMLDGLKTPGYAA

CCCCCCCC(CC(=O)O)NCC(=O)O (racemic) [CADA, 3-[(carboxymethyl)amino]decanoic acid]
LC-HRMS of INDA formation [1]: We reconstituted the activity of Rv0097 using the surrogate substrate CADA

C[C@H](CC(=O)O)NCC(=O)O [CABA, (R)-3-((carboxymethyl)amino)butanoic acid]
LC-HRMS; glyoxylate derivatization with 2-nitrophenylhydrazine [2]: Y96F ScoE mutant revealed that it was unable to synthesize INBA from CABA
